Measured values: patent US20160235068A1, “CONTROLLED RELEASE PARTICLES, PRODUCTION METHOD THEREOF, MOLDING MATERIAL, AND MOLDED ARTICLE” (priority 2013, published 2016)
Values after ≈ are worked out from the molar mass of the structure shown.

Columns and labels:
[1] = Alkali-resistance test (Test A), suspending agent of controlled release particles; format: physicochemical; settings: 168 h, 0.05 %
Experimental: 1 mL of the diluted suspending agent was weighed in a glass bottle, and 4 mL of a saturated calcium hydroxide solution was added thereto, thereby preparing a test solution. The test solution was allowed to stand in a constant temperature of 40° C.
After 7 days from allowing the test solution to stand, 5 mL of acetonitrile was added to the test solution, the antibiotic compound was extracted, the amount of the antibiotic compound was determined with HPLC, and the remaining ratio of the antibiotic compound was calculated.

[2] = cited from earlier work

In the case of `O=[N+]([O-])NC1=NCCN1Cc1ccc(Cl)nc1` [Imidacloprid, 1-(6-chloro-3-pyridylmethyl)-N-nitroimidazolidin-2-ylideneamine], the “Alkali-resistance (Test A) Remaining ratio (%) of antibiotic compound” value [1] is reported as 0%.
For `CN/C(=N\[N+](=O)[O-])NCc1cnc(Cl)s1` [Clothianidin, (E)-1-(2-chlorothiazole-5-ylmethyl)-3-methyl-2-nitroguanidine], the solubility to water [2] is listed as 0.33 mg/mL (≈ 1320 µM).
